In general, IC50 refers to the concentration that gives 50% inhibition.

We go through 28 compounds from patent USRE46792E1, “Oxazole compound and pharmaceutical composition” (Otsuka Pharmaceutical Co., Ltd., priority 2005, dated 2018).

human PDE4D3 (PDE4D), sequence (Q08499 other isoform, or with tags, fused parts or gaps): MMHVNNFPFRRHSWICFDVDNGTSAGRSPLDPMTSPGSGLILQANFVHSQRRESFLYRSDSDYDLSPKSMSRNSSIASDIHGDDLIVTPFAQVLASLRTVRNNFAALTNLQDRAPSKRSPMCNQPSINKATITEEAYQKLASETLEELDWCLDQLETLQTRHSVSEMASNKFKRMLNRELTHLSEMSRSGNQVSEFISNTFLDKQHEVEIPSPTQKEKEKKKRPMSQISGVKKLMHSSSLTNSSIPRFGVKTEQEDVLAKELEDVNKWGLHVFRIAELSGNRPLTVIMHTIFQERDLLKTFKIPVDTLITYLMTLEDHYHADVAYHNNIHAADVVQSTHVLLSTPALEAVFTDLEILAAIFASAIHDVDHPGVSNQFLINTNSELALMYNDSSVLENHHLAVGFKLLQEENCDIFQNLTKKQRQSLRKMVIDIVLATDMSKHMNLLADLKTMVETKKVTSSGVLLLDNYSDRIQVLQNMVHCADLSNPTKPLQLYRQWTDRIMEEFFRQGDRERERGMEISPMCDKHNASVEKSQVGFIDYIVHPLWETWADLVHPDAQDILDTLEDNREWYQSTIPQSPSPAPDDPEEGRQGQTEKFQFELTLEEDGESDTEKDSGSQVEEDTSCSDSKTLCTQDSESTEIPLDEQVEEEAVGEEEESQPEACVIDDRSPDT

The assay concerns the target human PDE4D3 (PDE4D) (Homo sapiens (Human), UniProt Q08499). The assay is described as follows: Phosphodiesterase (PDE)4 inhibitory activity evaluation test ([3H]cAMP hydrolysis by PDE4D enzyme solution). It is filed as biochemical. To be noted: recombinant human PDE4D3 expressed in COS-7 cells; [3H]cAMP substrate; 10 min at 30° C.; 2% DMSO. From the text:
Phosphodiesterase (PDE)4 Inhibitory Activity Evaluation Test
(1) Large Scale Plasmid Preparation
Plasmid containing genes (HPDE4D) coding for human PDE4D3 cDNA (stored in Otsuka America Pharmaceutical, Inc., Maryland Research Laboratories) was transformed in E. coli, cultured on a large scale, and purified using an EndoFree™ Plasmid Maxi Kit (Qiagen).
(2) Abundant Expression and Purification of PDE4D
COS-7 cells derived from African green monkey kidneys were passage cultured in D-MEM media containing 100 units/ml penicillin, 100 μg/ml streptomycin, and 10% FBS. The cells were transfected with the plasmid prepared in (1) above using Lipofectamine™ 2000 (hereinafter referred to as “LF2000”, Invitrogen), following the manufacturer's protocol. The COS-7 cells were inoculated in a 10 cm culture dish on the previous day so as to be 90% confluent on the day of transfection. Culture dishes each containing a plasmid solution (solution A) in which 24 μg of plasmid was diluted in 1.5 ml Opti-MEM I Reduced Serum Medium (Invitrogen) and an LF2000 solution (solution B) in which 60 μl of LF2000 was diluted in 1.5 ml Opti-MEM I Reduced Serum Medium were separately allowed to stand for 5 minutes at room temperature. Solutions A and B were then mixed and the mixture was allowed to stand for 20 minutes at room temperature. The mixture was added to the cultured cells, and incubated at 37° C. (5% CO2) overnight. On the following day, the medium was replaced, and the mixture was further incubated overnight to harvest the cells in the following manner. The cells were washed with PBS (Sigma) once, and 10 ml of a Trypsin-EDTA solution (Sigma) was added to each culture dish. After the solution was distributed to each of the culture dishes, the cells were detached, and the dishes were allowed to stand for about 5 minutes at 37° C. The detached cells from the dishes were suspended in media, collected into centrifuge tubes, and centrifuged at 1200 rpm for 5 minutes at 4° C., and supernatants were removed. The cells were further washed with PBS, and stored at −80° C. KHEM buffer (100 mM Hepes, 50 mM KCl, 10 mM EGTA, 1.92 mM MgCl2, pH 7.4) containing 1 mM DTT, 1 μg/ml antipain, 1 μg/ml aprotinin, 1 μg/ml leupeptin, 1 μg/ml pepstatin A, 157 μg/ml benzamidine, and 120 μg/ml Pefabloc SC was added to the stored cells, and the contents were moved to a glass homogenizer to be homogenized on ice. The cell suspension was centrifuged at 1000 rpm for 5 minutes at 4° C., and the supernatant was further centrifuged at 14000 rpm for one hour. After centrifugation, the supernatant was dispensed into new tubes as PDE4D enzyme solutions, and stored in a deep freezer.
(3) Determination on Dilution Ratio of PDE4D Enzyme Solutions
The PDE4D enzyme solutions prepared in (2) above were dissolved in 20 mM Tris-HCl solution (pH 7.4) to give 10-, 25-, 50-, 100-, 200-, 400-, and 800-fold dilutions of the enzyme solutions. PDE4D activities were measured according to (4) below. The percentage of catalyzed cAMP to total cAMP was calculated, and such a dilution, in which the percentage was between 10% and 30%, was adopted in the inhibitory study below.
(4) Measurement of PDE4D Inhibitory Activity
Necessary amounts of test compounds were weighed, and 100% dimethylsulfoxide (DMSO) was added thereto to adjust the concentration to 10 mM. The solutions were stored in a freezer as stock solutions of each test compound. After being thawed when required, the solutions were diluted 20-fold with 100% DMSO to give a 500 μM concentration. Further, 10-fold serial dilutions were made with 100% DMSO to prepare test compounds of different concentrations. 2 μl of solutions containing one of each of the test compound were separately added into 1.2 ml tubes in which 23 μl of 20 mM Tris-HCl (pH 7.4) had been placed beforehand. […]
Consider `CCCOc1cc(-c2nc(CNC(=O)c3ncccc3C)co2)ccc1OC(F)F` [Example 340, N-[2-(4-difluoromethoxy-3-propoxyphenyl)oxazol-4-ylmethyl]-3-methylpicolinamide], for which the half-maximal inhibitory concentration (IC50) is under 50 nM. For `COc1ccc(-c2nc(CCC(=O)c3ncccc3C)co2)cc1OCC(F)(F)F` [Example 155, 3-{2-[4-methoxy-3-(2,2,2-trifluoroethoxy)phenyl]oxazol-4-yl}-1-(3-methylpyridin-2-yl)propan-1-one] the value was under 50 nM.

In the case of `CCOc1ccccc1C(=O)NCc1coc(-c2ccc(OC(F)F)c(OCC(F)F)c2)n1` [Example 382, N-{2-[4-difluoromethoxy-3-(2,2-difluoroethoxy)phenyl]-oxazol-4-ylmethyl}-2-ethoxy benzamide], the concentration for half-maximal inhibition (IC50) was under 50 nM. As to `CCOc1ccccc1C(=O)NCc1coc(-c2ccc(OC(F)F)c(OCC(C)C)c2)n1` [Example 348, N-[2-(4-difluoromethoxy-3-isobutoxyphenyl)oxazol-4-ylmethyl]-2-ethoxybenzamide], the IC50 is under 50 nM. For `CCOc1cc(-c2nc(CCC(=O)c3ncccc3C)co2)ccc1OC` [Example 138, 3-[2-(3-ethoxy-4-methoxyphenyl)oxazol-4-yl]-1-(3-methylpyridin-2-yl)propan-1-one], the 50% inhibitory concentration (IC50) was under 50 nM.

Turning to `C=CCOc1cc(-c2nc(CNC(=O)c3ncccc3C)co2)ccc1OC(F)F` [Example 339, N-[2-(3-allyloxy-4-difluoromethoxyphenyl)oxazol-4-ylmethyl]-3-methylpicolinamide], the IC50 was under 50 nM. For `COc1ccc(-c2nc(CCC(=O)c3ncccc3OC)co2)cc1OCC(F)(F)F` [Example 129, 1-(3-methoxypyridin-2-yl)-3-{2-[4-methoxy-3-(2,2,2-trifluoroethoxy)phenyl]oxazol-4-yl}propan-1-one] the value was under 50 nM; for `COc1ccc(-c2nc(CCC(=O)c3ncccc3C)co2)cc1OC(C)C` [Example 139, 3-[2-(3-isopropoxy-4-methoxyphenyl)oxazol-4-yl]-1-(3-methylpyridin-2-yl)propan-1-one], under 50 nM; for `C=CCOc1cc(-c2nc(CCC(=O)c3ccccc3OCC(F)F)co2)ccc1OC` [Example 281, 3-[2-(3-allyloxy-4-methoxyphenyl)oxazol-4-yl]-1-[2-(2,2-difluoroethoxy)phenyl]propan-1-one], under 50 nM. Under `C=CCOc1cc(-c2nc(CNC(=O)c3ncccc3C)co2)ccc1OC` [Example 21, N-[2-(3-allyloxy-4-methoxyphenyl)oxazol-4-ylmethyl]-3-methylpicolinamide] stands under 50 nM. For `CCOc1cc(-c2nc(CCC(=O)c3ccccc3OC(F)F)co2)ccc1OC` [Example 274, 1-(2-difluoromethoxyphenyl)-3-[2-(3-ethoxy-4-methoxyphenyl)oxazol-4-yl]propan-1-one] the value was under 50 nM.

On to `CCOc1cc(-c2nc(CCC(=O)c3ccccc3OCC)co2)ccc1OC(F)F` [Example 334, 3-[2-(4-difluoromethoxy-3-ethoxyphenyl)oxazol-4-yl]-1-(2-ethoxyphenyl)propan-1-one], for which the IC50 was under 50 nM. With `CCCOc1ccccc1C(=O)CCc1coc(-c2ccc(OC)c(OCC)c2)n1` [Example 195, 3-[2-(3-ethoxy-4-methoxyphenyl)oxazol-4-yl]-1-(2-propoxyphenyl)propan-1-one], the IC50 is under 50 nM. `C=CCOc1cc(-c2nc(CCC(=O)c3ncccc3C)co2)ccc1OC` [Example 140, 3-[2-(3-allyloxy-4-methoxyphenyl)oxazol-4-yl]-1-(3-methylpyridin-2-yl)propan-1-one]: the 50% inhibitory concentration (IC50) is under 50 nM. With `CCOc1ccccc1C(=O)NCc1coc(-c2ccc(OC(F)F)c(OC(CC)CC)c2)n1` [Example 355, N-{2-[4-difluoromethoxy-3-(1-ethylpropoxy)phenyl]oxazol-4-ylmethyl}-2-ethoxybenzamide], the half-inhibitory concentration (IC50) was under 50 nM. As for `CCOc1ccccc1C(=O)NCc1coc(-c2ccc(OC(F)F)c(OCC3CC3)c2)n1` [Example 353, N-[2-(3-cyclopropylmethoxy-4-difluoromethoxyphenyl)oxazol-4-ylmethyl]-2-ethoxy benzamide], the IC50 is under 50 nM. Turning to `C=CCOc1cc(-c2nc(CCC(=O)c3ccccc3OCC)co2)ccc1OC(F)F` [Example 335, 3-[2-(3-allyloxy-4-difluoromethoxyphenyl)oxazol-4-yl]-1-(2-ethoxyphenyl)propan-1-one], the IC50 is under 50 nM.

For `C=CCOc1cc(-c2nc(CCC(=O)c3ccccc3OC)co2)ccc1OC` [Example 174, 3-[2-(3-allyloxy-4-methoxyphenyl)oxazol-4-yl]-1-(2-methoxyphenyl)propan-1-one], the IC50 is under 50 nM. Under `COc1ccc(-c2nc(CNC(=O)c3ccccc3OC)co2)cc1OCC(C)C` [Example 63, N-[2-(3-isobutoxy-4-methoxyphenyl)oxazol-4-ylmethyl]-2-methoxybenzamide] stands under 50 nM. For the compound `CCOc1ccccc1C(=O)CCc1coc(-c2ccc(OC)c(OCC(F)F)c2)n1` [Example 314, 3-{2-[3-(2,2-difluoroethoxy)-4-methoxyphenyl]oxazol-4-yl}-1-(2-ethoxyphenyl)propan-1-one], the IC50 was under 50 nM. In the case of `CCCOc1cc(-c2nc(CCC(=O)c3ncccc3C)co2)ccc1OC(F)F` [Example 329, 3-[2-(4-difluoromethoxy-3-propoxyphenyl)oxazol-4-yl]-1-(3-methylpyridin-2-yl)propan-1-one], the 50% inhibitory concentration (IC50) was under 50 nM. Regarding `C=CCCOc1cc(-c2nc(CCC(=O)c3ccccc3OCCF)co2)ccc1OC` [Example 276, 3-[2-(3-but-3-enyloxy-4-methoxyphenyl)oxazol-4-yl]-1-[2-(2-fluoroethoxy)phenyl]propan-1-one], the half-inhibitory concentration (IC50) was under 50 nM.

As to `COc1ccc(-c2nc(CNC(=O)c3ncccc3C)co2)cc1OC1Cc2ccccc2C1` [Example 22, N-{2-[3-(indan-2-yloxy)-4-methoxyphenyl]oxazol-4-ylmethyl}-3-methylpicolinamide], the IC50 is under 50 nM.

For the compound `CCOc1ccccc1C(=O)CCc1coc(-c2ccc(OC)c(OCC(F)(F)F)c2)n1` [Example 112, 1-(2-ethoxyphenyl)-3-{2-[4-methoxy-3-(2,2,2-trifluoroethoxy)phenyl]oxazol-4-yl}propan-1-one], the half-maximal inhibitory concentration (IC50) is under 50 nM. Under `CCOc1ccccc1C(=O)CCc1coc(-c2ccc(OC)c(OC(C)C)c2)n1` [Example 111, 1-(2-ethoxyphenyl)-3-[2-(3-isopropoxy-4-methoxyphenyl)oxazol-4-yl]propan-1-one] stands under 50 nM. Under `CCOc1cc(-c2nc(CCC(=O)c3ccc(F)cc3OC(C)C)co2)ccc1OC` [Example 305, 3-[2-(3-ethoxy-4-methoxyphenyl)oxazol-4-yl]-1-(4-fluoro-2-isopropoxyphenyl)propan-1-one] stands under 50 nM; under `CCOc1ccccc1C(=O)CCc1coc(-c2ccc(OC)c(OCC3CCC3)c2)n1` [Example 116, 3-[2-(3-cyclobutylmethoxy-4-methoxyphenyl)oxazol-4-yl]-1-(2-ethoxyphenyl)propan-1-one], under 50 nM; under `CCOc1ccc(-c2nc(CCC(=O)c3ncccc3C)co2)cc1OCC(F)F` [Example 318, 3-{2-[3-(2,2-difluoroethoxy)-4-ethoxyphenyl]oxazol-4-yl}-1-(3-methylpyridin-2-yl)-propan-1-one], under 50 nM.
